{"source": "patent US8901276B2", "about": "“Peptide reagents and methods for detection of colon dysplasia” (The Regents of the University of Michigan, priority 2010, dated 2014)", "key": {"HT29 cells [1]": {"tested_on": "HT29 cells", "assay": "Flow cytometry of FITC-labeled peptides", "type": "cell-based, human", "details": "10 μM, 60 min, 4° C., FITC channel", "description": "(§1) Preferential binding of FITC-Peptide 2 to target cells was validated using flow cytometry. HT29 and Hs738.St/Int. (˜2×10^5) cells were grown, detached, and blocked as described above. These cells were incubated with the FITC-Peptide 2 or -Control peptide 2 (10 μM) for 60 min at 4° C. with continuous agitation. The cells were then washed (3×) with cold PBST followed by immediate fixing for 10 min. with 4% paraformaldehyde. The cells were washed again (1×) with PBS and resuspended in 1 mL of PBS. Flow cytometry was performed using FACSDiVa (BD® LSRII, BD Biosciences, San Jose, Calif.) and analyzed using Flowjo analysis program (Tree Star Inc., Ashland, Oreg.).\n(§2) Preferential binding of the candidate peptide labeled with 5-FITC to the target and control cells was also validated using flow cytometry. HT29 and Hs738.St/Int. (˜2×10^5) cells were grown, detached, and blocked, as described above. These cells were incubated with the 5-FITC labeled candidate or control peptide (10 μM) for 60 min at 4° C. with continuous agitation. The cells were then washed 3× with cold PBST followed by immediate fixation for 10 min with 4% paraformaldehyde. The cells were washed again with PBS and resuspended in 1 mL of PBS. Flow cytometry was performed using FACSDiVa (BD® LSRII, BD Biosciences, San Jose, Calif.) and analyzed using Flowjo analysis program (Tree Star Inc. Ashland, Oreg.)."}, "Hs738.St/Int. cells": {"tested_on": "Hs738.St/Int. cells", "assay": "Flow cytometry of FITC-labeled peptides", "type": "cell-based, human", "details": "10 μM, 60 min, 4° C.", "description": "as §1, §2"}, "HT29 cells [2]": {"tested_on": "HT29 cells", "assay": "Fluorescence microscopy of FITC-labeled peptides", "type": "cell-based, human", "details": "10 μM; for internalization within HT29 cells: 37° C.; for binding to the surface of HT29 cells: 15 min, 4° C.", "description": "Preferential binding of the FITC-Peptide 2 and FITC-Control peptide 2 to target and non-target cells was also validated via fluorescence microscopy. HT29 and Hs738.St/Int. cells were grown in 22 mm2 cover slips with ˜80% confluence. Blocking of non-specific binding was performed by adding PBS/0.5% BSA for 30 min. The cells were then incubated with 10 μM of FITC-Peptide 2 or FITC-Control peptide 2 either at 4 or 37° C. for 15 min followed by 1 μg/mL Hoechst dye (Sigma Aldrich, St. Louis, Mo.) along with the peptide. The cells were washed with PBS for 3 times and fixed with 4% paraformaldehyde at room temperature for 10 min. After fixation, the cells were washed again with PBS (1×) and mounted with ProLong® Gold reagent (Invitrogen, Carlsbad, Calif.) and the fluorescence images were acquired with Leica Confocal system. (Leica Microsystems GMBH, Wetzlar, 35578 Germany)\nIn addition, the ability of the FITC-Peptide 2 peptide to internalize within the HT29 cells was tested. HT29 cells were incubated for 15 min. at either 4° C. or 37° C. in the presence of 10 μM FITC-Peptide 2.\nPreferential binding of the FITC-labeled candidate and control peptides to the target and non-target cells was further validated via fluorescence microscopy. HT29 and Hs738.St/Int. cells were grown on cover slips to ˜80% confluence. Blocking of non-specific binding was performed by adding PBS/0.5% BSA for 30 min. The cells were then incubated with 10 μM of 5-FITC-labeled candidate or control peptide at either 4 or 37° C. for 15 min followed by staining with 1 μg/mL Hoechst dye (Sigma Aldrich, St. Louis, Mo.) along with the peptide. The cells were washed 3× with PBS and fixed with 4% paraformaldehyde at RT for 10 min. After fixation, the cells were washed again with PBS and mounted with ProLong Gold reagent (Invitrogen, Carlsbad, Calif.) and fluorescence images were collected with confocal microscopy (Leica TCS SP5 Microsystems, Bannockburn, Ill.)."}, "HT29 cells [3]": {"tested_on": "HT29 cells", "assay": "Determination of binding constant (plate reader fluorescence)", "set-up": "species or system human", "description": "The binding affinity of FITC-Peptide 2 to HT29 cells (1×10^5) was determined using various concentrations of the peptide. The fluorescence intensity of the peptide bound to the HT29 cells was measured at saturation. Then, the FITC-labeled peptide was serially diluted in PBS at concentrations that varied from 0 to 70 μmol/L and incubated with 1×10^5 HT29 cells at 4° C. for 1 hr. After washing 3 times with cold PBS/0.2% Tween 20 solution, the unbound peptide was rinsed off. The cells were resuspended in 200 μL PBS and transferred to a 96 well plate. The fluorescence intensity I was measured at 525 nm using 485 nm as the excitation wavelength on a multi-well plate reader (CytoFluor Series 4000; Applied Biosystems Inc, Foster City, Calif.). Binding of the peptide to the cells was calculated using the peptide emission intensity with the same concentration without the cells present. The peptide equilibrium dissociation constant Kd=1/Ka was calculated by performing a least squares fit of the data to the non-linear equation I=(I0+ImaxKa[X])/(I0+Ka[X]). I0 and Imax are the initial and maximum fluorescence intensities, corresponding to no peptide and at saturation, respectively, and [X] represents the concentration of the bound peptide. Origin 6.1 data analysis software (Origin Lab Corp, Northampton, Mass.) was used to fit the equation for non-linear least square fitting. […]"}}, "note": "“Also recorded” adds a separate entry of the source.", "data": [{"substance": "KCCFPAQ-FITC [FITC-Peptide 2, KCCFPAQ with FITC at the C-terminus on the side chain of lysine residue via GGGSK linker]", "values": [{"measurement": "total HT29 cell population bound", "setting": "HT29 cells [1]", "value": "About 97%"}, {"measurement": "total HT29 cell population bound", "setting": "HT29 cells [1]; listed as KCCFPAQ peptide", "value": 97, "unit": "%"}, {"measurement": "binding to Hs738.St/Int. cells on flow cytometry", "setting": "Hs738.St/Int. cells", "value": "bound minimally"}, {"measurement": "internalization within HT29 cells", "setting": "HT29 cells [2]", "value": "diffuse staining throughout the cells"}, {"measurement": "internalization within HT29 cells", "setting": "HT29 cells [2]; listed as KCCFPAQ peptide", "value": "diffuse peptide staining throughout the cells"}, {"measurement": "binding to the surface of HT29 cells", "setting": "HT29 cells [2]", "value": "binds to the surface of the HT29; also recorded: confined to the cell surface"}, {"measurement": "binding to the surface of HT29 cells", "setting": "HT29 cells [2]; listed as KCCFPAQ peptide", "value": "binds to the surface of the HT29 cells"}, {"measurement": "Kd", "setting": "HT29 cells [3]; FITC-labeled peptide 0 to 70 μM, 4° C., 1 hr, R^2=0.988", "value": 65, "unit": "nM"}, {"measurement": "Kd", "setting": "HT29 cells [3]; summary of results", "value": 65, "unit": "nM"}]}]}
